Holding throughout (conditions): 72 h
In experiment [1] the test system is U2OS. Briefly: drug sensitivity score (DSS) for viability; higher = more toxic; extreme values may be limits of the assay.
Experiment [2] relates to Vero E6. The description is as above.
For experiment [3], the system named is Caco-2. The experiment is described as above.
The test system of experiment [4] is HepG2. The description is as above.
The subject of experiment [5] is U2OS. Briefly: relative viability EC50 (midpoint between 100% and the lowest measured viability); higher = less toxic.
Experiment [6] relates to Vero E6. The description is as above.
In experiment [7] the test system is Caco-2. Described as above.
Experiment [8] deals with HepG2. Described as above.
Experiment [9] deals with U2OS. Briefly: cell viability relative to DMSO; higher = less toxic.
The test system of experiment [10] is Vero E6. The experiment is described as above.
Experiment [11] deals with Caco-2. Described as above.
For experiment [12], the system named is HepG2. The description is as above.
The test system of experiment [13] is Calu-3. Briefly: drug sensitivity score (DSS) for viability; higher = more toxic; extreme values may be limits of the assay.
For experiment [14], the system named is Calu-3. Briefly: cell viability relative to DMSO; higher = less toxic.

SMILES strings stand for the structures.

In the case of `Cc1nc2ccccc2n1Cc1ccc(Cl)cc1` [chlormidazole], the drug sensitivity score in the experiment with U2OS [1] was 0; in the experiment with Vero E6 [2], 0.1; in the experiment on Caco-2 [3], 2.4; in the experiment with HepG2 [4], 5.4. The “relative viability EC50” value in the experiment with U2OS [5] was over 10000 nM; with Vero E6 [6], over 10000 nM; in the experiment on Caco-2 [7], over 10000 nM; in the experiment with HepG2 [8], 2300 nM. The cell viability with U2OS [9] (1 nM) amounted to 99.2%; in the experiment with U2OS [9] (10 nM), 95.9%; in the experiment on U2OS [9] (100 nM) it was 98.8%; in the experiment with U2OS [9] (1000 nM), 96.9%; with U2OS [9] (10000 nM), 95.8%; in the experiment on Vero E6 [10] (1 nM), 96.7%. The cell viability with Vero E6 [10] (10 nM) was found to be 107%; with Vero E6 [10] (100 nM), 104%; in the experiment on Vero E6 [10] (1000 nM), 107%; with Vero E6 [10] (10000 nM), 85.9%; in the experiment with Caco-2 [11] (1 nM) it was 103%; in the experiment on Caco-2 [11] (10 nM), 101%. Also, the cell viability was 109% in the experiment on Caco-2 [11] (100 nM); 83.1% in the experiment with Caco-2 [11] (1000 nM); 77.8% in the experiment on Caco-2 [11] (10000 nM); 92.3% in the experiment on HepG2 [12] (1 nM); 95.4% in the experiment with HepG2 [12] (10 nM); 109% in the experiment with HepG2 [12] (100 nM). For the same compound, the cell viability with HepG2 [12] (1000 nM) turned out to be 92.1%; in the experiment with HepG2 [12] (10000 nM), 25.1%.

Turning to `Nc1nc(Cl)nc2c1ncn2[C@@H]1O[C@H](CO)[C@@H](O)[C@@H]1F` [clofarabine], the drug sensitivity score with U2OS [1] amounted to 4; in the experiment with Vero E6 [2] it was 4; in the experiment with Calu-3 [13], 6.8; with Caco-2 [3], 2.8; with HepG2 [4], 14.1. The “relative viability EC50” value in the experiment with HepG2 [8] turned out to be 192 nM. Moreover, the cell viability turned out to be 99.9% in the experiment on U2OS [9] (1 nM); 101% in the experiment with U2OS [9] (10 nM); 105% with U2OS [9] (100 nM); 79.7% in the experiment with U2OS [9] (1000 nM); 65.5% with U2OS [9] (10000 nM); 96.2% in the experiment on Vero E6 [10] (1 nM). Besides, the cell viability in the experiment on Vero E6 [10] (10 nM) is 91.5%; in the experiment on Vero E6 [10] (100 nM) it was 96.6%; in the experiment on Vero E6 [10] (1000 nM) it was 87.8%; in the experiment with Vero E6 [10] (10000 nM), 55.9%; in the experiment on Calu-3 [14] (1 nM), 91.4%; in the experiment with Calu-3 [14] (10 nM), 106%. The cell viability with Calu-3 [14] (100 nM) came out at 96.2%; with Calu-3 [14] (1000 nM), 64.8%; with Calu-3 [14] (10000 nM), 54.6%; with Caco-2 [11] (1 nM), 90.2%; in the experiment with Caco-2 [11] (10 nM), 102%; with Caco-2 [11] (100 nM), 88.8%. For the same compound, the cell viability in the experiment on Caco-2 [11] (1000 nM) stood at 85.9%; in the experiment on Caco-2 [11] (10000 nM), 71.5%; with HepG2 [12] (1 nM), 94.1%; with HepG2 [12] (10 nM), 100%; in the experiment with HepG2 [12] (100 nM) it was 89.2%; with HepG2 [12] (1000 nM) it was 33.3%. The cell viability with HepG2 [12] (10000 nM) is 39.3%.

With `COc1cc2c(c(OC)c1OC)-c1ccc(OC)c(=O)cc1[C@@H](NC(C)=O)CC2` [colchicine], the drug sensitivity score is 23.9 with U2OS [1], 13.2 in the experiment with Vero E6 [2], 17.5 with Caco-2 [3] and 21.2 with HepG2 [4]. For the same compound, the “relative viability EC50” value in the experiment with U2OS [5] was 40.7 nM; in the experiment on Vero E6 [6], 308 nM; in the experiment with Caco-2 [7], 41.9 nM; with HepG2 [8], 24.1 nM. For the same compound, the cell viability with U2OS [9] (1 nM) is 104%; with U2OS [9] (10 nM) it was 103%; in the experiment with U2OS [9] (100 nM) it was 25.3%; in the experiment with U2OS [9] (1000 nM), 20%; in the experiment on U2OS [9] (10000 nM), 19.2%; in the experiment on Vero E6 [10] (1 nM) it was 101%. The cell viability in the experiment on Vero E6 [10] (10 nM) is 101%; with Vero E6 [10] (100 nM), 96.9%; with Vero E6 [10] (1000 nM), 31.1%; in the experiment with Vero E6 [10] (10000 nM), 28.5%; in the experiment with Caco-2 [11] (1 nM), 97.2%; in the experiment with Caco-2 [11] (10 nM), 103%. Further, the cell viability with Caco-2 [11] (100 nM) is 45.8%; in the experiment on Caco-2 [11] (1000 nM) it was 46.1%; in the experiment with Caco-2 [11] (10000 nM), 41.1%; with HepG2 [12] (1 nM), 104%; in the experiment with HepG2 [12] (10 nM) it was 91.2%; in the experiment on HepG2 [12] (100 nM) it was 38%. Further, the values for the cell viability in the experiment on HepG2 [12] (1000 nM) and in the experiment with HepG2 [12] (10000 nM) were 34.8% and 39.7%, respectively.

`C/C=C(/C)C(=O)O[C@H]1[C@H](OC(C)=O)[C@@]2(CO)C(CC1(C)C)C1=CCC3[C@@]4(C)CCC(O[C@@H]5O[C@H](C(=O)O)[C@@H](O[C@@H]6O[C@H](CO)[C@@H](O)[C@H](O)[C@H]6O)[C@H](O)[C@H]5O[C@@H]5O[C@H](CO)[C@@H](O)[C@H](O)[C@H]5O)[C@](C)(CO)C4CC[C@@]3(C)[C@]1(C)C[C@H]2O.C/C=C(\C)C(=O)O[C@H]1[C@H](OC(C)=O)[C@@]2(CO)C(CC1(C)C)C1=CCC3[C@@]4(C)CCC(O[C@@H]5O[C@H](C(=O)O)[C@@H](O[C@@H]6O[C@H](CO)[C@@H](O)[C@H](O)[C@H]6O)[C@H](O)[C@H]5O[C@@H]5O[C@H](CO)[C@@H](O)[C@H](O)[C@H]5O)[C@](C)(CO)C4CC[C@@]3(C)[C@]1(C)C[C@H]2O` (stereo not given in full) [escin]: the drug sensitivity score in the experiment on U2OS [1] is 1.5; in the experiment on Vero E6 [2], 4.1; in the experiment with Calu-3 [13], 0; in the experiment on HepG2 [4] it was 3.8.

As for `C[C@]12CC[C@@H]3c4ccc(O)cc4CC[C@H]3[C@@H]1CC[C@@H]2O` [estradiol], the drug sensitivity score in the experiment with U2OS [1], in the experiment on Vero E6 [2], with Calu-3 [13] and with HepG2 [4] was 0 each time.

As a reminder, the cell viability is a read-out of living cells in per cent, often relative to untreated cells.

The values above are taken from the supplement of paper PMC13380429.
